Data: PubChem BioAssay AID651703 (Broad Institute, 2012)
Values joined by “and” are separate entries in the source; they are usually repeats but may differ in a detail not shown here. Equal values may be shown once.

Molecular target: Transforming acidic coiled-coil-containing protein 3 (Homo sapiens) (UniProt Q9Y6A5)
Assay: ARNT/TACC3 interaction disruptors, potency, confirmation, biochemical, AlphaScreen, cherry-picked samples (AID 651703);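 also: TACC3 partner is the GST-tagged E629A mutant dimer; hits lower the signal meaning they disrupt ARNT binding to TACC3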
Conditions: AlphaScreen His-ARNT PAS-B / GST-TACC3 binding, luminescence

Row | SMILES | AC50
1 | O=C(CSc1ccc(-c2ccccn2)nn1)N1CCCc2ccccc21 | 5.32 µM
2 | C[C@H]1CN([C@@H](C)CO)C(=O)c2cccc(NC(=O)Nc3cccc4ccccc34)c2O[C@@H]1CN(C)S(=O)(=O)c1ccc(Cl)cc1 | 51.9 µM
3 | Cc1ccc(-n2c(-c3ccc(Br)cc3)c[n+]3c2CCc2ccc4cccnc4c2-3)cc1 | 1.45 µM
4 | c1ccc(-c2nnc(-c3ccccn3)nc2N2CCC(N3CCOCC3)CC2)cc1 | < 0.5 µM
5 | O=C(Nc1nnc(SCc2ccc(F)cc2)s1)c1ccccn1 | 7.06 µM
6 | O=S1(=O)N=C(N/N=C/c2ccccn2)c2ccccc21 | 4.02 µM
7 | COc1cc2c(cc1OC)-c1c3c(cc4c1[C@@H](C2)N(C)CC4)OCO3 | 17.6 µM
8 | O=C(CSc1ccc(-c2ccccn2)nn1)NCc1ccc(F)cc1 | 6.65 µM
9 | COc1ccc(C2CC(=O)Oc3c(C(CCN4CCCCC4)c4ccc(N(C)C)cc4)c(OC)cc(OC)c32)cc1 (configuration not stated) | 10.2 µM
10 | O=C(Nc1nc(-c2ccccn2)cs1)c1cc(Cl)ccc1[N+](=O)[O-] | 3.07 µM
11 | NNc1ccc(S(=O)(=O)N2CCCCC2)cn1 | 9.17 µM
12 | Nc1nc(CN2CCN(Cc3ccccc3)CC2)nc(Nc2ccc3c(c2)OCCO3)n1 | 65.8 µM
13 | COCc1ccc(O)c2ncccc12 | 2.22 µM
14 | Cc1oc(C(=O)O)cc1COc1cccc2cccnc12 | 36.6 µM
15 | Clc1ccc(-c2ccc(CNCc3ccccn3)o2)cc1 | 20 µM
16 | Cn1nc(-c2ccccn2)nc2c(=O)n(C)c(=O)nc1-2 | < 0.5 µM
17 | CCOc1ccc(NC(=O)CC(NCc2ccccn2)C(=O)O)cc1 (configuration not stated) | < 0.5 µM
18 | Oc1cc(NCc2ccc(F)cc2)cc2cccnc12 | 8.9 µM
19 | CN(C)c1nc(-c2ccccn2)nnc1-c1ccccc1 | < 0.5 µM
20 | COc1ccc(CCNC(=O)CSc2nnc(Cc3csc(N)n3)n2C)cc1OC | 61 µM
21 | CC(Oc1ccc(F)cc1)C(=O)Nc1nc(-c2ccccn2)cs1 (configuration not stated) | 8.7 µM
22 | O=C(CSc1nnc(-c2cccnc2)o1)Nc1nccs1 | 17.7 µM
23 | Cc1ccccc1-n1c(SCC(=O)Nc2ccc3c(c2)OCO3)nnc1-c1ccccn1 | 15.6 µM

Row | SMILES | AC50
24 | c1ccc(-c2csc(Nc3nc(-c4ccccn4)nnc3-c3ccccc3)n2)cc1 | 0.897 µM
25 | CCCCCOc1ccc(NC(=O)CSc2cccc3cccnc23)cc1 | 9.17 µM
26 | CCOC(=O)c1cnc(-n2[nH]c(C)cc2=O)[nH]c1=O | 0.754 µM
27 | CN1CCN(c2nc(-c3ccccn3)nnc2-c2ccccc2)CC1 | < 0.5 µM
28 | N#Cc1ccc(C(=O)Nc2nnc(-c3ccccn3)o2)cc1 | 22.4 µM
29 | c1ccc(CNCCN2CCNCC2)nc1 | 6.79 µM
30 | Cc1[nH][nH]c(=O)c1C(c1c(C)[nH][nH]c1=O)c1cn(Cc2cccc3ccccc23)c2ccccc12 | 19.9 µM
31 | c1cncc(-c2nc(NCCCn3ccnc3)c3ccccc3n2)c1 | 16.2 µM
32 | O=C(CSc1ccc(-c2ccccn2)nn1)Nc1cccc(F)c1 | 1.16 µM
33 | CSCc1cc(N(C)c2ccccc2)nc(-c2ccccn2)n1 | 5.86 µM
34 | COc1ccccc1NC(=O)CSc1n[nH]c(-c2ccccn2)n1 | 0.821 µM
35 | O=C(O)c1cc2c(cn1)[nH]c1ccccc12 | 1.8 µM
36 | O=S(=O)(NC1CCN(Cc2ccc(OCCO)cc2)CC1)c1cccc2cccnc12 | 15.2 µM
37 | COc1cc(OC)cc(C(=O)Oc2c(CN3CCOCC3)cc(Cl)c3cccnc23)c1 | 31.1 µM
38 | C=CCSc1nnc(-c2cccc3ccccc23)o1 | 5.8 µM
39 | Clc1ccc(OCc2nc(-c3ccccn3)n[nH]2)cc1 | 5.91 µM
40 | COc1ccc(C(=O)Nc2nc(-c3ccccn3)cs2)cc1S(=O)(=O)N1CCOCC1 | 3.13 µM
41 | c1ccc(N=Nc2ccc3cccccc2-3)cc1 | 1.68 µM
42 | CCNC(=O)C(=O)N/N=C/c1cc([N+](=O)[O-])ccc1O | 2.62 µM
43 | CSCCC(=O)Nc1nc(-c2ccccn2)cs1 | 8.98 µM
44 | O=C(N[C@H]1CC[C@H](CCn2cc(-c3ccccn3)nn2)O[C@@H]1CO)c1ccc(F)cc1 | 23.1 µM
45 | c1ccc(-c2nc3ccccn3c2NC2CCCC2)nc1 | 13.9 µM
46 | Oc1ccc(CN2CCN(Cc3ccccc3)CC2)c2cccnc12 | 2.41 µM

Row | SMILES | AC50
47 | CCO/C=C1/C(=O)N(Cc2ccccc2)C(=O)c2ccccc21 | 29 µM
48 | c1ccc(-c2nnc(-c3ccccn3)nc2NCC2CCOCC2)cc1 | < 0.5 µM
49 | C/C(=N\NC(=O)C(C)Oc1ccc([N+](=O)[O-])cc1)c1ccccn1 (configuration not stated) | 4.39 µM
50 | C[C@H](Nc1nc(-c2ccccn2)nnc1-c1ccccc1)C1CCCCC1 | 0.53 µM
51 | Cc1c(NC(=O)CSc2cccc3cccnc23)c(=O)n(-c2ccccc2)n1C | 3.6 µM
52 | CO[C@@H]1CN(C)C(=O)c2ccc(NC(=O)c3ccccn3)cc2OC[C@@H](C)N(Cc2ccccn2)C[C@H]1C | 7.1 µM
53 | O=C(CSc1nnc(-c2ccccn2)o1)Nc1ccccc1Cl | 9.92 µM
54 | O=C(Nc1nnc(-c2ccccn2)o1)c1cccc(Cl)c1 | 30.2 µM
55 | CC(=O)Nc1ccc(Oc2nc(-c3ccccn3)nc3ccccc23)cc1 | 7.02 µM
56 | c1ccc(-c2nnc(-c3ccccn3)nc2NCCc2ccccn2)cc1 | < 0.5 µM
57 | O=C(O)C1Nc2c(O)cc(Cl)c([N+](=O)[O-])c2C2C=CCC12 (configuration not stated) | 28.1 µM
58 | O=C(N[C@@H]1CC[C@H](CCn2cc(-c3ccccn3)nn2)O[C@@H]1CO)c1ccncc1 | 8.23 µM
59 | COc1ccccc1-c1nnc(NC(=O)c2cccc(N3C(=O)CCC3=O)c2)o1 | 29 µM
60 | Cc1cccc(S(=O)(=O)N[C@@H]2CC[C@@H](CCn3cc(-c4ccccn4)nn3)O[C@@H]2CO)c1 | 26.7 µM
61 | OCCN1CCN(C(=S)c2ccc(Cl)c(Cl)c2)CC1 | 33.2 µM
62 | COc1ccc(NC(=O)CSc2ccc3nnc(-c4ccccn4)n3n2)cc1 | 26.2 µM
63 | Cc1cc(=O)n2c3c(c4c(cc13)c(CN(C)C)cc(=O)n4C)OC2 | 17.7 µM
64 | Cc1ccc(CNc2nc(-c3ccccn3)nnc2-c2ccccc2)cc1 | 0.736 µM
65 | Cc1nnc(NC(=O)C2CCN(S(=O)(=O)c3cc([N+](=O)[O-])ccc3Cl)CC2)o1 | 21.9 µM
66 | c1ccc(-c2nnc(Nc3nc(-c4ccccn4)nnc3-c3ccccc3)s2)cc1 | 1.74 µM
67 | O=C(N/N=C/C=C/c1ccco1)c1cnccn1 | 55.4 µM
68 | C/C(CC(=O)Nc1ccc(N(C)C)cc1)=N\NC(=O)c1ccccn1 | 12.3 µM
69 | COc1ccc(NC(=O)N[C@@H]2CC[C@H](CCn3cc(-c4ccccn4)nn3)O[C@@H]2CO)cc1 | 21.5 µM

Row | SMILES | AC50
70 | Cc1n[nH]c(=O)nc1N/N=C/c1ccco1 | 42.5 µM
71 | CCCCCC/C=N/Nc1nnc(Cc2ccc(OC)c(OC)c2)c(=O)[nH]1 | 25.1 µM
72 | O=C(NCCCn1ccnc1)C(=O)NCC1OCCN1S(=O)(=O)c1ccc2c(c1)OCCO2 (configuration not stated) | 13.2 µM
73 | O=S(=O)(c1ccccc1)c1nc(-c2ccco2)oc1Nc1ccccc1 | 55.5 µM
74 | C(=N\Nc1ncnc2nc[nH]c12)/c1cccs1 | 57.8 µM
75 | CN(Cc1ccccc1)C(=O)c1[nH]cnc1C(=O)Nc1nccs1 | 22.5 µM
76 | Cc1ccc(C2(C)NC(=O)N(CC(=O)Nc3nc(-c4ccccn4)cs3)C2=O)cc1 (configuration not stated) | 4.67 µM
77 | COc1ccc(CNc2nc(-c3ccccn3)nnc2-c2ccccc2)cc1 | 0.611 µM
78 | C[C@H](CO)N1C[C@H](C)[C@@H](CN(C)S(=O)(=O)c2ccc(Cl)cc2)Oc2c(NC(=O)Nc3cccc4ccccc34)cccc2C1=O | 62 µM
79 | Cc1cccc(NC(=O)CSc2cccc3cccnc23)c1C | 33.7 µM
80 | Cc1cc(C)c2nc(C)cc(N/N=C/c3ccc(O)cc3)c2c1 | 37.3 µM
81 | CC(C)(C)C(=O)Nc1ccccc1C(=O)NCCCn1ccnc1 | 17.4 µM
82 | COc1cc(OC)c2c(-c3ccccc3)cc(=O)oc2c1C(CCN1CCCCC1)c1ccc(N(C)C)cc1 (configuration not stated) | 7.83 µM
83 | O=C(CN1CC(=O)Oc2ccccc21)OCC(=O)c1ccccc1 | 1.1 µM
84 | C[C@@H]1CN([C@@H](C)CO)C(=O)Cc2cc(NC(=O)Nc3cccc4ccccc34)ccc2O[C@H]1CN(C)Cc1ccc(Oc2ccccc2)cc1 | 18.4 µM
85 | COc1cccc(CNc2nc(-c3ccccn3)nnc2-c2ccccc2)c1 | 0.794 µM
86 | COc1cc(CNCc2ccccn2)ccc1OCc1cccc(Cl)c1 | 62.6 µM
87 | O=C(CSc1ccc2nnc(-c3ccccn3)n2n1)Nc1ccccc1C(F)(F)F | 50.7 µM
88 | Cc1nnc(NC(=O)c2ccc(S(=O)(=O)N3CCCCC3C)cc2)o1 (configuration not stated) | 52 µM
89 | O=C(O)CSc1cc(NS(=O)(=O)c2cccc([N+](=O)[O-])c2)c2ccccc2c1O | 48.1 µM
90 | Oc1ccccc1C(Nc1nccs1)c1ccc2cccnc2c1O (configuration not stated) | 4.85 µM
91 | CC(Oc1ccccc1)C(=O)Nc1nc(-c2ccccn2)cs1 (configuration not stated) | 13.2 µM
92 | O=C(CSc1ccc(-c2ccccn2)nn1)Nc1ccccc1 | 1.96 µM

Row | SMILES | AC50
93 | c1ccc(-c2cn(C[C@H]3CC[C@@H]([C@@H]4CC[C@H](Cn5cc(-c6ccccn6)nn5)O4)O3)nn2)nc1 | 0.659 µM
94 | CC(=O)[C@H]1[C@@H]2C(=O)N(c3cccc(Cl)c3)C(=O)[C@@H]2[C@H]2c3ccccc3C=CN21 | 6.22 µM
95 | O=C(Nc1nnc(-c2ccco2)o1)c1ccc(S(=O)(=O)N2CCOCC2)cc1 | 36.1 µM
96 | CCN(CC)c1ccc(/C=N/N=C(N)N)c(O)c1 | 38.9 µM
97 | CC1CCN(S(=O)(=O)c2ccc(C(=O)Nc3nnc(C4=COCCO4)o3)cc2)CC1 | 1.21 µM
98 | Cc1ccc(Nc2nc(N)nc(CN3CCCCCC3)n2)cc1 | 34.4 µM
99 | COc1ccccc1N1CCN(Cc2ccc(O)c3ncccc23)CC1 | 0.669 µM and 2.18 µM
100 | c1ccc(CNc2nc(-c3ccccn3)nc3ccccc23)cc1 | 11.4 µM
101 | O=S(=O)(N[C@H]1CC[C@H](CCn2cc(-c3ccccn3)nn2)O[C@@H]1CO)c1cccc(F)c1 | 10.7 µM
102 | CC(C)[C@H](NC(=O)c1ccccc1Cl)C(=O)Nc1nc(-c2ccccn2)cs1 | 6.72 µM
103 | NCCc1cnc[nH]1 | 23.1 µM
104 | Cn1c(-c2ccc3c(c2)OCO3)cnc1N | 39 µM
105 | NS(=O)(=O)c1ccc(N=Nc2c[nH]c(=O)c(O)c2)cc1 | 57.9 µM
106 | Oc1cc(NCCN2CCOCC2)cc2cccnc12 | 1.46 µM
107 | O=C(COc1ccc([N+](=O)[O-])cc1)Nc1nc(-c2ccccn2)cs1 | 6.57 µM
108 | COc1cc(CNCc2ccccn2)ccc1OCc1c(Cl)cccc1Cl | 43.4 µM
109 | CC(=O)NC(c1ccco1)c1cc(F)c2cccnc2c1O (configuration not stated) | 5.76 µM
110 | O=C(N/N=C/c1c(O)ccc2ccccc12)c1ccc(CO)nc1 | 10.8 µM
111 | C=CCn1c(Cc2csc(N)n2)nnc1SCC(=O)Nc1ccc(C(=O)OCC)cc1 | 14.1 µM
112 | O=C(N[C@@H]1CC[C@H](CCn2cc(-c3ccccn3)nn2)O[C@@H]1CO)c1cccnc1 | 13.5 µM
